Results reported in PubChem BioAssay AID1963871 (Molecular Pharmacology Branch, DTP, NCI, 2024).

Tested on: KRAS-mutant PDC multicell tumor spheroid viability
Experiment: Anticancer human tumor 521955-158-R2-J5-PDC patient-derived pancreatic carcinoma cell line growth inhibition [KRAS2]
Conditions: for IC50: curve of first compound; for viability, T/C: stronger effect = lower value
How it was run: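 Combination screen of spheroid viability in tumor-cell co-cultures with endothelial (HUVEC) and mesenchymal stem cell stroma. Each agent was tested in half-log dilutions, topping at clinical Cmax or at 10 microM without a known Cmax.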

[1] = second compound 0.0316 µM, first compound 0.0316 µM
[2] = second compound 0.0316 µM, first compound 0.1 µM
[3] = second compound 0.0316 µM, first compound 0.316 µM
[4] = second compound 0.0316 µM, first compound 1 µM
[5] = second compound 0.0316 µM, first compound 3.16 µM
[6] = second compound 0.1 µM, first compound 0.0316 µM
[7] = second compound 0.1 µM, first compound 0.1 µM
[8] = second compound 0.1 µM, first compound 0.316 µM
[9] = second compound 0.1 µM, first compound 1 µM
[10] = second compound 0.1 µM, first compound 3.16 µM
[11] = second compound 0.316 µM, first compound 0.0316 µM
[12] = second compound 0.316 µM, first compound 0.1 µM
[13] = second compound 0.316 µM, first compound 0.316 µM
[14] = second compound 0.316 µM, first compound 1 µM
[15] = second compound 0.316 µM, first compound 3.16 µM
[16] = second compound 1 µM, first compound 0.0316 µM
[17] = second compound 1 µM, first compound 0.1 µM
[18] = second compound 1 µM, first compound 0.316 µM
[19] = second compound 1 µM, first compound 1 µM
[20] = second compound 1 µM, first compound 3.16 µM
[21] = second compound 3.16 µM, first compound 0.0316 µM
[22] = second compound 3.16 µM, first compound 0.1 µM
[23] = second compound 3.16 µM, first compound 0.316 µM
[24] = second compound 3.16 µM, first compound 1 µM
[25] = second compound 3.16 µM, first compound 3.16 µM
[26] = second compound 0.0316 µM, first compound 10 µM
[27] = second compound 0.1 µM, first compound 10 µM
[28] = second compound 0.316 µM, first compound 10 µM
[29] = second compound 1 µM, first compound 10 µM
[30] = second compound 3.16 µM, first compound 10 µM
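Further: viability read after seven days of drug exposure.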

`CC1COCCN1c1cc(-c2ccnn2C)c2ccnc(-c3ccn[nH]3)c2n1` (stereo not given) + C=CC(=O)N1CCN(c2nc(OCC3CCCN3C)nc3c2CCN(c2cccc4cccc(C)c24)C3)CC1CC#N showed an IC50 (second compound 0.0316 µM) of 30.6 nM, an IC50 (second compound 0.1 µM) of 29.6 nM and an IC50 (second compound 0.316 µM) of 22.9 nM. The IC50 (second compound 1 µM) was 17 nM, the IC50 (second compound 3.16 µM) was less than 10 nM and the viability, T/C (second compound 0.0316 µM, first compound 0.01 µM) was 95.8%. The viability, T/C [1] was 48.6%, the viability, T/C [2] was 10.9% and the viability, T/C [3] was 13.4%. For the same compound, the viability, T/C [4] was 21.8%, the viability, T/C [5] was 27.5% and the viability, T/C (second compound 0.1 µM, first compound 0.01 µM) was 109%. The viability, T/C [6] was 46.4%, the viability, T/C [7] was 9.45% and the viability, T/C [8] was 13.1%. For the same compound, the viability, T/C [9] was 21.9%, the viability, T/C [10] was 26.9% and the viability, T/C (second compound 0.316 µM, first compound 0.01 µM) was 96%. The viability, T/C [11] was 32%, the viability, T/C [12] was 7.93% and the viability, T/C [13] was 11.4%. It also gave a viability, T/C [14] of 19.9%, a viability, T/C [15] of 27.3% and a viability, T/C (second compound 1 µM, first compound 0.01 µM) of 77.8%. For the same compound, the viability, T/C [16] was 17.8%, the viability, T/C [17] was 5.2% and the viability, T/C [18] was 9.79%. For the same compound, the viability, T/C [19] was 17.1%, the viability, T/C [20] was 21.1% and the viability, T/C (second compound 3.16 µM, first compound 0.01 µM) was 10.7%. It also gave a viability, T/C [21] of 6.36%, a viability, T/C [22] of 4.26% and a viability, T/C [23] of 6.86%. The viability, T/C [24] was 11% and the viability, T/C [25] was 15.3%.

Work on `CC1OCC2(CCN(c3cnc(Sc4ccnc(N)c4Cl)c(N)n3)CC2)C1N` (stereo not given) + C=CC(=O)N1CCN(c2nc(OCC3CCCN3C)nc3c2CCN(c2cccc4cccc(C)c24)C3)CC1CC#N yielded an IC50 (second compound 0.0316 µM) greater than 10000 nM, an IC50 (second compound 0.1 µM) greater than 10000 nM and an IC50 (second compound 0.316 µM) greater than 10000 nM. For the same compound, the IC50 (second compound 1 µM) was greater than 10000 nM, the IC50 (second compound 3.16 µM) was less than 31.6 nM and the viability, T/C [1] was 92.9%. It also gave a viability, T/C [2] of 79%, a viability, T/C [3] of 75.2% and a viability, T/C [4] of 63.5%. It also gave a viability, T/C [5] of 60%, a viability, T/C [26] of 70.8% and a viability, T/C [6] of 99.8%. The viability, T/C [7] was 88.1%, the viability, T/C [8] was 74.5% and the viability, T/C [9] was 68.6%. For the same compound, the viability, T/C [10] was 63.3%, the viability, T/C [27] was 66.6% and the viability, T/C [11] was 84.5%. For the same compound, the viability, T/C [12] was 84.4%, the viability, T/C [13] was 65.4% and the viability, T/C [14] was 59.2%. It also gave a viability, T/C [15] of 65.9%, a viability, T/C [28] of 58.4% and a viability, T/C [16] of 84.8%. For the same compound, the viability, T/C [17] was 70.7%, the viability, T/C [18] was 59.2% and the viability, T/C [19] was 56.9%. The viability, T/C [20] was 57.4%, the viability, T/C [29] was 55.5% and the viability, T/C [21] was 15.1%. The viability, T/C [22] was 13.1%, the viability, T/C [23] was 15.4% and the viability, T/C [24] was 13%. It also gave a viability, T/C [25] of 5.45% and a viability, T/C [30] of 5.43%.

`CCNC(=O)CC1N=C(c2ccc(Cl)cc2)c2cc(OC)ccc2-n2c(C)nnc21` (stereo not given) + C=CC(=O)N1CCN(c2nc(OCC3CCCN3C)nc3c2CCN(c2cccc4cccc(C)c24)C3)CC1CC#N gave an IC50 (second compound 0.0316 µM) of 395 nM, an IC50 (second compound 0.1 µM) of 340 nM and an IC50 (second compound 0.316 µM) of 302 nM. It also gave an IC50 (second compound 1 µM) of 291 nM, an IC50 (second compound 3.16 µM) of less than 31.6 nM and a viability, T/C [1] of 106%. The viability, T/C [2] was 94.9%, the viability, T/C [3] was 52.9% and the viability, T/C [4] was 38%. For the same compound, the viability, T/C [5] was 32.4%, the viability, T/C [26] was 34.2% and the viability, T/C [6] was 96.3%. For the same compound, the viability, T/C [7] was 79.4%, the viability, T/C [8] was 50.7% and the viability, T/C [9] was 36%. It also gave a viability, T/C [10] of 34.3%, a viability, T/C [27] of 30.1% and a viability, T/C [11] of 103%. The viability, T/C [12] was 97.6%, the viability, T/C [13] was 47.8% and the viability, T/C [14] was 35.2%. It also gave a viability, T/C [15] of 31.6%, a viability, T/C [28] of 32.7% and a viability, T/C [16] of 84.3%. The viability, T/C [17] was 77%, the viability, T/C [18] was 48.1% and the viability, T/C [19] was 30.1%. The viability, T/C [20] was 28.1%, the viability, T/C [29] was 29.4% and the viability, T/C [21] was 29.8%. The viability, T/C [22] was 22%, the viability, T/C [23] was 22.2% and the viability, T/C [24] was 0.29%. It also gave a viability, T/C [25] of 14.3% and a viability, T/C [30] of 11.2%.

With `Cn1nccc1Nc1nccc(-c2cc3c(s2)C(C)(C)N(CCN2CCOCC2)C3=O)n1` + C=CC(=O)N1CCN(c2nc(OCC3CCCN3C)nc3c2CCN(c2cccc4cccc(C)c24)C3)CC1CC#N the IC50 (second compound 0.0316 µM) was 657 nM, the IC50 (second compound 0.1 µM) was 546 nM and the IC50 (second compound 0.316 µM) was 458 nM. The IC50 (second compound 1 µM) was 170 nM, the IC50 (second compound 3.16 µM) was less than 31.6 nM and the viability, T/C [1] was 100%. For the same compound, the viability, T/C [2] was 95.3%, the viability, T/C [3] was 64.3% and the viability, T/C [4] was 40.6%. The viability, T/C [5] was 29.7%, the viability, T/C [26] was 19.1% and the viability, T/C [6] was 98.2%. It also gave a viability, T/C [7] of 76.6%, a viability, T/C [8] of 57.1% and a viability, T/C [9] of 44.5%. It also gave a viability, T/C [10] of 23.8%, a viability, T/C [27] of 17.1% and a viability, T/C [11] of 78.4%. For the same compound, the viability, T/C [12] was 81%, the viability, T/C [13] was 48.3% and the viability, T/C [14] was 41.9%. For the same compound, the viability, T/C [15] was 22.1%, the viability, T/C [28] was 16.8% and the viability, T/C [16] was 75.5%. The viability, T/C [17] was 52.1%, the viability, T/C [18] was 41.6% and the viability, T/C [19] was 38%. It also gave a viability, T/C [20] of 23.3%, a viability, T/C [29] of 17.9% and a viability, T/C [21] of 11.5%. It also gave a viability, T/C [22] of 10.4%, a viability, T/C [23] of 6.73% and a viability, T/C [24] of 1.86%. The viability, T/C [25] was 0.55% and the viability, T/C [30] was 0.33%.
